Test results reported in patent US10954258B2, “STAT3 dimerization inhibitors” (H. LEE MOFFITT CANCER CENTER AND RESEARCH INSTITUTE, INC., priority 2012, dated 2021).

Experiments:
Format in all cases: cell-based, human
STAT3 binding to EGFR = target: T1, STAT3 binding to EGFR (Mus musculus, UniProt P42227); assay: co-immunoprecipitation of EGFR and P-STAT3 with HA-STAT3 after EGF stimulation; details: HA-STAT3/FLAG-STAT3/HEK293 cells stimulated with EGF
T1 construct: expressed in transfected cells; host or cells: HEK293 stably co-expressing HA-STAT3 and FLAG-STAT3; EGFR endogenous; stimulated with 100 ng/ml EGF
T1 sequence (P42227 whole entry): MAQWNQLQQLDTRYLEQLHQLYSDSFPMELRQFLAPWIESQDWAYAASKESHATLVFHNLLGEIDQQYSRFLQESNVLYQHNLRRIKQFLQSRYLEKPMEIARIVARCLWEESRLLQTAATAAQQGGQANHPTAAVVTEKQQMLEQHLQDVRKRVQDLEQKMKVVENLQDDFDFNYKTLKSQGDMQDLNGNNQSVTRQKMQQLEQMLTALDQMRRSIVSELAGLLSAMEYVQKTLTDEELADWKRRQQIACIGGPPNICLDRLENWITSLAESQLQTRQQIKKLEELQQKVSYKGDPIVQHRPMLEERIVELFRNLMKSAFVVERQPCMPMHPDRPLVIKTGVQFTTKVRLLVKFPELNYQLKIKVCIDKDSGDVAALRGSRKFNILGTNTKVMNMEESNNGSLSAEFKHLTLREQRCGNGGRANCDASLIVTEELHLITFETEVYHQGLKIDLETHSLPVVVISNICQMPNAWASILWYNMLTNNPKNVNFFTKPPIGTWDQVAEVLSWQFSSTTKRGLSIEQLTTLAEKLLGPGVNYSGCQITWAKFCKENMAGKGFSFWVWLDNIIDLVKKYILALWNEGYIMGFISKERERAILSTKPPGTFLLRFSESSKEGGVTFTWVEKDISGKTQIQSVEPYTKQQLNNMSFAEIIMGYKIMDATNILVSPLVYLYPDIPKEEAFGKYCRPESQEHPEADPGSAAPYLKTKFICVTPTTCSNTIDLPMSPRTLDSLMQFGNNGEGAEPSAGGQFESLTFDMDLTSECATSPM
Method: For EGF stimulation group, HEK-293/FLAG-STAT3/HASTAT3 cells were treated by 100 ng/ml EGF for 30 minutes before making cell lysate. Protein A or G agarose (EMD Millipore, Billerica, Mass., USA) was washed twice with PBS and restore to 50% slurry with PBS. 500 μg of lysate were pre-cleared by mixture of protein A and protein G-agarose for 1 h at 4° C. and then remove protein A and G-agarose by centrifuge at 1300 rpm for 3 minutes. And then 500 μg of lysate was immunoprecipitated with 50 ng of HA antibody overnight at 4° C. on shaker and then capture the immunocomplex by adding 100 μl Protein A and G agarose/sepharose bead slurry for 1 hour at 4° C. Samples were washed five times with lysis buffer and then boiled in 5×SDS-PAGE sample buffer and run on SDS-PAGE gel. Protein was transferred to nitrocellulose membrane and then blotted as described above for HA, FLAG, pSTAT3, EGFR, and STAT3.
Therefore, it was determined if the intracellular reciprocal binding of 2 full-length STAT3 proteins is inhibited. To this end, an assay was developed to measure directly STAT3-STAT3 dimerization in intact cells by cloning HA-tagged STAT3 and FLAG-tagged STAT3, generating HEK293 cells that stably co-express HA-STAT3 and FLAG-STAT3 and using these cells for coimmunoprecipitation and co-localization. […]

[1] = target: dimerization of FLAG-STAT3 and HA-STAT3 (Mus musculus, UniProt P42227); assay: co-localization of FLAG-STAT3 and HA-STAT3 by immunofluorescence; details: HEK293 cells; 1, 2 or 4 hours
dimerization of FLAG-STAT3 and HA-STAT3, sequence (P42227 whole entry): as above
Method: HEK-293/FLAG-Stat3/HA-Stat3 cells were cultured (4000 cells per well) with G418 400 ug/ml in 8 well chamber slide. The cells were treated with S3I-1757 or S3I-1756 for 1 hour, 2 hours, or 4 hours. The cells were then rinsed with phosphate buffered saline (PBS), fixed with ice-cold methanol for 15 minutes, washed 3 times in PBS, permeabilized with 0.2% Triton X-100 for 15 minutes, and further washed 3-4 times with PBS. Cells were then blocked in 1% bovine serum albumin (BSA) for 30 min and incubated with anti-HA (Santa Cruz, Santa Cruz, Calif., USA) or anti-FLAG (Sigma, St. Louis, Mo., USA) primary antibody at 1:100 dilution at 4° C. overnight. Subsequently, cells were rinsed 4-5 times in PBS, incubated with Alexa fluor secondary antibody (Invitrogen, Carlsbad, Calif., USA) for 1 hour at room temperature in the dark. Cells were then washed 5 times with PBS, covered with cover slides with […] mounting medium containing DAPI (Vector Lab, Inc., Burlingame, Calif.), and examined immediately under Zeiss Upright Fluorescence Microscope (Zeiss, Thornwood, N.Y., USA).
HASTAT3/FLAG-STAT3/HEK 293 cells were treated with vehicle, S3I-1757 or S3I-1756 and the cells were processed for immunofluorescence staining for FLAG-STAT3 and HA-STAT3 and analyzed by confocal microscopy.

[2] = tested on: P-STAT3 in the nucleus of MDA-MB-468 cells; assay: P-STAT3 nuclear accumulation by immunofluorescence
Method: MDA-MB-468 cells were plated at 4000 cells/well in 8-chamber slide. […] Cells were fixed, washed, and permeabilized as describe above. Specimens were then blocked in 1% bovine serum albumin (BSA) for 30 min and incubated with anti-pSTAT3 (Cell Signaling), antibody at 1:50 dilution at 4° C. overnight. Subsequently, cells were rinsed 4-5 times in PBS, incubated with Alexa Fluor secondary antibody for 1 hour at room temperature in the dark. Specimens were then washed 5 times with PBS, covered with cover slides with [sequence] mounting medium containing DAPI (Vector Lab, Inc., Burlingame, Calif.), and examined immediately under Zeiss Upright Fluorescence Microscope (Zeiss, Thornwood, N.Y., USA).

[3] = tested on: STAT3-responsive promoter-firefly luciferase reporter (pLucTKS3); assay: luciferase reporter assay, STAT3-responsive promoter
Method: (§1) MDA-MB-468 cells were plated into 12-well plate with 4×10^5 cells per well. The cells were transiently transfected with pLucSRE, pLucTKS3 or STAT3-C with β-gal and then were treated with vehicle, S3I-1756 or S3I-1757 for 48 hours. Then cytosolic extracts of equal total protein were prepared from S3I-1757-treated or -untreated and analyzed for luciferase activity using a TD-20/20 luminometer (Turner Designs, Sunnyvale, Calif., USA) described by us previously.
(§2) To this end, MDA-MB-468 cells were transiently co-transfected with a STAT3-responsive promoter-firefly luciferase reporter (pLucTKS3) and 3-gal reporter used to normalize the transfection efficacy. To determine the selectivity of S3I-1757 to suppress STAT3-dependent over STAT3-independent transcriptional activation, MDA-MB-468 cells were also co-transfected with SRE promoter-renilla luciferase reporter (pLucSRE) and β-gal reporter. […] STAT3-C spontaneously dimerizes via disulfide bonds in the absence of tyrosine phosphorylation and is therefore not predicted to be inhibited by a small molecule that is designed to mimic phosphotyrosine binding.

[4] = tested on: SRE promoter-renilla luciferase reporter (pLucSRE); assay: luciferase reporter assay, SRE promoter; details: MDA-MB-468; 48 hours
Method: as §1, §2

[5] = tested on: MDA-MB-468, MDA-MB-231, H358, A549 cells; assay: MTT assay, cells with persistently activated STAT3; details: 48 hours
Method: MTT assay was performed exactly as described by Balasis, et al., Clin. Cancer Res. 2011; 17(9):2852-2862, to determine the effects of S3I-1757 on cell proliferation. Cells were plated in a 96 well tissue culture plate (2000 cells per well) and incubated for 12 hours. After incubation the cells were treated with vehicle S3I-1757 or S3I-1756 for 48 hours. After incubation, freshly prepared MTT (3 mg/ml) in 1×PBS was added to each well and incubated for 3 hours and the plate was read at 570 nm.
Several cell lines were used, some with persistently Y705 phosphorylated STAT3 and others without (FIG. 9A). […] The effects of S3I-1757 on cancer cell anchorage-independent growth were next determined by soft-agar assay.

MDA-MB-468 cells = assay: anchorage independent growth by soft agar assay, MDA-MB-468; details: constitutively active STAT3
Method: (§3) Soft agar colony formation assays were performed in 12-well plate as described in Balasis, et al., Clin. Cancer. […] Colonies were allowed to grow for 3-4 weeks, and quantified by staining with 1 mg/mL MTT (Sigma, St. Louis, Mo., USA) overnight.

H460 cells = assay: anchorage independent growth by soft agar assay, H460; details: low activated STAT3 level
Method: as §3

[6] = tested on: MDA-MB-231 and A-549 cells; assay: wound healing (migration) assay, cells with persistently activated STAT3
Method: A549, MDA-MB-231 and H460 cells were seeded at 6×10^5 cells per dish into 60 mm plate and allowed to grow overnight. Wounds were made the following day by scratching the cells with pipette tips (1-10 μL). Cells were treated with vehicle, S3I-1756 or S3I-1757 and allowed to migrate into the scratched area for 16 hours in regular growth medium. The migration of cells was visualized at 10× magnification using a Leica Microscope at time 0 (right before the drug was added) and 16 hours after vehicle, S3I-1756, or S3I-1757 treatments.
The cancer cells were cultured with serum-starved medium for 8 hours before scratching the cells with a pipette tip and treating with increasing concentrations of S3I-1757 for 24 hours. […] Finally, the ability of S3I-1757 to inhibit selectively invasion was determined.

[7] = tested on: MDA-MB-468, MDA-MB-231 and A-549 cells; assay: Matrigel invasion assay, cells with activated STAT3; details: 48 hours
Method: Invasion assay was performed in BD BioCoat™ Matrigel® Invasion Chamber in 24-well plates. A549, MDA-MB-468, MDA-MB-231 and H460 cells were seeded at 25,000 cells/insert in the top chamber over the Matrigel. The bottom chamber contains 20% FBS as the “chemoattractant.” Vehicle, S3I-1756, or S3I-1757 were added the following day. The cells were incubated for 48 hours, after which the cells in the top chamber were carefully removed and the filter membranes containing the invaded cells on the outside of the filter were fixed with methanol, stained with crystal violet and photographed.

[8] = tested on: MDA-MB-468 cells transiently transfected with vector or STAT3C; assay: STAT3-C rescue: western blotting, MTT, migration and invasion
From the text: To this end, MDA-MB-468 were transfected cells with STAT3-C, then treated the cells with S3I-1757 and processed the cells for western blotting, cell growth, migration and invasion.

[9] = MDA-MB-468 transfected with STAT3-C

O=C(O)c1cc(N(Cc2ccc(C3CCCCC3)cc2)C(=O)c2ccc(Oc3ccccc3)cc2)ccc1O [Compound 20g, 5-(N-(4-Cyclohexylbenzyl)-4-phenoxybenzamido)-2-hydroxybenzoic acid]
EGFR and P-STAT3 co-immunoprecipitated with HA-STAT3 (STAT3 binding to EGFR): inhibited these interactions
co-localization of FLAG-STAT3 and HA-STAT3 (yellow color) [1]: progressively less yellow color over time
levels of p-STAT3 in the nucleus ([2]; 2 hours and 4 hours): dramatically decreased
P-STAT3 nuclear accumulation ([2]; 18 hours, various concentrations): inhibited P-STAT3 nuclear accumulation in a concentration-dependent manner starting at 50 μM
STAT3-dependent luciferase activity (pLucTKS3) ([3]; MDA-MB-468, 48 hours): less luciferase activity
STAT3-dependent transcriptional activity in cells transfected with STAT3-C [3, 9]: rescued from the S3I-1757 inhibition
SRE-driven luciferase activity (STAT3-independent) [4]: minimal effect
anchorage-dependent proliferation by MTT, cells that harbor persistently activated STAT3 [5]: inhibited in a dose dependent manner
anchorage independent growth (soft agar), MDA-MB-468 (MDA-MB-468 cells): significantly inhibited
anchorage-independent growth (soft agar), H460 (H460 cells): little effect
migration (wound healing), MDA-MB-231 and A-549 [6]: prevented this migration
invasion, MDA-MB-468, MDA-MB-231 and A-549 [7]: inhibited invasion
apoptosis induction (caspase 3, PARP) ([8]; MDA-MB-468, FIG. 11A): induced activation of caspase 3 and PARP cleavage
expression levels of BclxL, cyclin D1 and survivin ([8]; MDA-MB-468, FIG. 11A): inhibited the expression levels of these proteins
down regulation of BclxL, cyclin D1, survivin and apoptosis with ectopic STAT3-C [8, 9]: ectopic expression of STAT3-C inhibited the ability of S3I-1757 to down regulate
inhibition of migration and invasion, STAT3-C-transfected cells [8, 9]: partially rescued
proliferation/survival by MTT with STAT3-C ([8]; MDA-MB-468 transfected with STAT3-C, FIG. 11B): STAT3-C inhibited S3I-1757 from inhibiting the proliferation/survival
migration and invasion, vector-transfected cells ([8]; MDA-MB-468 transfected with vector DNA): inhibited the migration and invasion
